Our source for the IC50 values is patent publication US20230203060A1 (GENFLEET THERAPEUTICS (SHANGHAI) INC., priority 2020, published 2023).

What all share (format): cell-based, human
In assay [1] the test system is KRAS G12C mutant NCI-H358 cells. Briefly: Cell proliferation inhibition experiment, 3D spheroid, CellTiter-Glo, NCI-H358. The following applies: NCI-H358 (KRAS G12C mutant) 3D spheroid, 5 days with compound, CellTiter-Glo, read-out: H358 IC50. Put shortly: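 Cells seeded in 2% FBS medium in spheroid plates (800 H358 or 400 A549 per well), grown overnight to form 3D spheroids, then exposed to 3.16-fold compound dilutions (0.1% DMSO) for 5 days. CellTiter-Glo luminescence gave inhibition vs DMSO and medium blanks; IC50 by four-parameter fit.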
(In general: In ATP-based viability assays light output follows the ATP content of the culture.)

Assay [2] concerns A549 cells (KRAS G12S mutant). Briefly: Cell proliferation inhibition experiment, 3D spheroid, CellTiter-Glo, A549. Conditions: A549 (KRAS G12S mutant) 3D spheroid, 5 days with compound, CellTiter-Glo, read-out: A549 IC50. From the text: Raw materials and instruments: NCI-H358 purchased from ATCC; article number: CRL-5807; batch number: 70010825; A549 purchased from ATCC; article number: CCL-185; batch number: 70007820; RPMI1640 purchased from Gibco; article number: 11875-093; batch number: 2152748; F-12K purchased from Gibco; article number: 21127-022; batch number: 2185853; FBS purchased from Gibco; article number: 10099-141; batch number: 2109290CP; PS purchased from Gibco; article number: 15140-122; batch number: 2145451; Trypsin-EDTApurchased from Gibco; article number: 25200-072; batch number: 2085552; CellTiter Glo working solution purchased from Promega; article number: G9683; batch number: 398478; DMSO purchased from VWR AMRESCO; article number: 0231-500ML; batch number: 18C0656168; 384-well spheroid plate purchased from Corning; article number: 3830; batch number: 27519032; white opaque 384-well plate purchased from Corning; article number: 3570; batch number: 26819023; microplate reader purchased from PerkinElmer; model: Envision MLD2105-0020; equipment number 1050369.
NCI-H358 is a KRAS G12C mutant human non-small cell lung cancer cell line, cultured in 10% FBS RPMI-1640+1% PS culture medium; and A549 is a KRAS G12S mutant human lung adenocarcinoma cell line, cultured in 10% FBS F-12K+1% PS culture medium. Cells at logarithmic growth stage were taken, digested with trypsin-EDTA, then collected and counted. H358 was adjusted to 1.8 E4 cells/mL with 2% FBS RPMI-1640 culture medium, and A549 was adjusted to 8.9 E3 cells/mL with 2% FBS F-12K culture medium; 800 (45 μL) H358 or 400 (45 μL) A549 were inoculated respectively in a 384-well spheroid plate and cultured overnight to establish a 3D cell model. A 3.16-fold gradient concentration stock solution of 1000× compound was prepared with DMSO, and diluted 100-fold to 10× compound stock solution with 2% FBS culture medium. On the second day after cell inoculation, 5 μL of 10× compound stock solution was added to each cell culture well, with a final concentration of 1× and a DMSO content of 0.1%. DMSO was used as experimental control (control), and 2% FBS culture medium was used as blank control (blank). After 5 days of compound cell culture, 25 μL of CellTiter-Glo working solution was added to each well, mixed well at 400 rpm and incubated for 30 minutes. After standing at room temperature for 30 minutes, 40 μL of the mixed solution was transferred to a white opaque 384-well plate, and the luminescence chemiluminescence value was read with a microplate reader. The cell proliferation inhibition rate IR (%)=(RLU control -RLU compound)/(RLU control -RLU blank) x100% was calculated. The gradient dilution concentration of the compound and the corresponding cell proliferation inhibition rate were fitted by Prism 6 four-parameter method, and the IC50 value was calculated. The inhibitory activity of the compounds prepared in the above embodiments of the present disclosure on KRAS G12C mutant NCI-H358 cells was 0.0001 μM to 0.5 μM; the inhibitory activity of some compounds on KRAS G12C mutant NCI-H358 cells was 0.001 μM to 0.1 μM or 0.001 μM to 0.05 μM.

For assay [3], the system named is KRAS G12C mutant MIA PaCa-2 cells. The experiment in a line: Cell proliferation inhibition experiment, 3D spheroid, CellTiter-Glo, MIA PaCa-2. Conditions: 3D cell model in 384-well spheroid plate, 5 days, CellTiter-Glo, read-out: MIA-PaCa2 IC50. From the text: Raw materials and instruments: MIA PaCa-2 purchased from ATCC; article number: CRL-1420; batch number: 63143594; DMEM purchased from Gibco; article number: 11995-065; batch number: 2186878; FBS purchased from Gibco; article number: 10099-141; batch number: 2109290CP; Horse Serum purchased from Gibco; article number: 16050-122; batch number: 1818976; PS purchased from Gibco; article number: 15140-122; batch number: 2145451; Trypsin-EDTA purchased from Gibco; article number: 25200-072; batch number: 2085552; CellTiter Glo working solution purchased from Promega; article number: G9683; batch number 398478; DMSO purchased from VWR AMRESCO; article number: 0231-500ML; batch number: 18C0656168; 384-well spheroid plate purchased from Corning; article number: 3830; batch number: 27519032; white opaque 384-well plate purchased from Corning; article number: 3570; batch number: 26819023; microplate reader purchased from PerkinElmer; model: Envision MLD2105-0020; equipment number 1050369.
MIA PaCa-2 is a KRAS G12C mutant human pancreatic cancer cell line, cultured in 10% FBS+2.5% Horse Serum DMEM+1% PS culture medium; cells at logarithmic growth stage were taken, digested with trypsin-EDTA, then collected and counted, and 200 MIA PaCa-2 were inoculated in a 384-well spheroid plate, respectively, and cultured overnight to establish a 3D cell model. A 3.16-fold gradient concentration stock solution of 1000× compound was prepared with DMSO, and diluted 100-fold to 10× compound stock solution with culture medium. On the second day after cell inoculation, 10× compound stock solution was added to each cell culture well, with a final concentration of 1× and a DMSO content of 0.1%. DMSO was used as experimental control (control), and culture medium was used as blank control (blank). After 5 days of compound cell culture, 30 μL of CellTiter-Glo working solution was added to each well, mixed well and incubated for 30 minutes. After standing at room temperature for 30 minutes, 40 μL of the mixed solution was transferred to a white opaque 384-well plate, and the luminescence chemiluminescence value was read with a microplate reader. The cell proliferation inhibition rate IR (%)=(RLU control -RLU compound)/(RLU control−RLU blank)×100% was calculated. The gradient dilution concentration of the compound and the corresponding cell proliferation inhibition rate were fitted by XLFit four-parameter method, and the IC50 value was calculated. The inhibitory activity of the compounds prepared in the above embodiments of the present disclosure on KRAS G12C mutant MIA PaCa-2 cells was 0.0001 μM to 0.5 μM; the inhibitory activity of some compounds on KRAS G12C mutant MIA PaCa-2 cells was 0.001 μM to 0.1 μM or 0.001 μM to 0.05 μM.

[4] abbreviates: Homo sapiens, MIA PaCa-2, 120 h.

Like-named read-outs stand apart in the source and are kept apart here.

By IC50 is commonly meant the concentration at which inhibition is half-maximal. Take `C=CC(=O)N1CCN2C(=O)c3c(N4CCC5(CCC5)C4)nc(-c4c(O)cccc4F)c(Cl)c3OC[C@H]2C1` [Z35, (6aR)-8-actyloyl-4-chloro-3-(2-fluoro-6-hydroxyphenyl)-1-(6-azaspiro[3.4]octan-6-yl)-6,6a,7,8,9,10-hexahydro-12H-pyrazino[2,1-c]pyrido[3,4-f][1,4]oxazepin-12-one]: the IC50 was 21 nM in assay [1], above 5 µM in assay [2] and 36 nM in assay [3].
Regarding `C=CC(=O)N1CCN2C(=O)c3c(N4CCOC5(CCC5)C4)nc(-c4c(O)cccc4F)c(Cl)c3OC[C@H]2C1` [Z36, (6aR)-8-acryloyl-4-chloro-3-(2-fluoro-6-hydroxyphenyl)-1-(5-oxa-8-azaspiro[3.5]nonan-8-yl)-6,6a,7,8,9,10-hexahydro-12H-pyrazino[2,1-c]pyrido[3,4-f][1,4]oxazepin-12-one], the IC50 in assay [1] (Homo sapiens, NCI-H358, 120 h) is 40 nM; in assay [2] (Homo sapiens, A549, 120 h) it was above 1 µM; in assay [3] (setting [4]) it was 57 nM.
On the same counts, the results for `C=CC(=O)N1CCN2C(=O)c3c(N4[C@@H]5CC[C@H]4COC5)nc(-c4c(O)cccc4F)c(Cl)c3OC[C@H]2C1` [Z38, (6aR)-8-acryloyl-1-((1R,5S)-3-oxa-8-azabicyclo[3.2.1]octan-8-yl)-4-chloro-3-(2-fluoro-6-hydroxyphenyl)-6,6a,7,8,9,10-hexahydro-12H-pyrazino[2,1-c]pyrido[3,4-f][1,4]oxazepin-12-one] are 55 nM, above 10 µM and 88 nM.
On the same counts, the results for `C=CC(=O)N1CCN2C(=O)c3c(OCC4CCN(C)CC4)nc(-c4c(O)cccc4F)c(Cl)c3OC[C@H]2C1` [Z40, (6aR)-8-acryloyl-1-((1-methylpiperidin-4-yl)methoxy)-4-chloro-3-(2-fluoro-6-hydroxyphenyl)-6,6a,7,8,9,10-hexahydro-12H-pyrazino[2,1-c]pyrido[3,4-f][1,4]oxazepin-12-one] are 91 nM, above 30 µM and 57 nM.
With `C=CC(=O)N1CCN2C(=O)c3c(Oc4cccc5c4OC(C)(C)C5)nc(-c4c(O)cccc4F)c(Cl)c3OC[C@H]2C1` [Z42, (6aR)-8-acryloyl-4-chloro-1-((2,2-dimethyl-2,3-dihydrobenzofuran-7-yl)oxy)-3-(2-fluoro-6-hydroxyphenyl)-6,6a,7,8,9,10-hexahydro-12H-pyrazino[2,1-c]pyrido[3,4-f][1,4]oxazepin-12-one], the IC50 in assay [1] (Homo sapiens, NCI-H358, 120 h) turned out to be 37 nM; in assay [2] (Homo sapiens, A549, 120 h), 6.29 µM; in assay [3] (setting [4]) it was 87 nM.
On the same counts, the results for `C=CC(=O)N1CCN2C(=O)c3c(N4CCC5(CC5)C4)nc(-c4c(O)cccc4F)c(Cl)c3OC[C@H]2C1` [Z44, (6aR)-8-acryloyl-4-chloro-3-(2-fluoro-6-hydroxyphenyl)-1-(5-azaspiro[2.4]heptan-5-yl)-6,6a,7,8,9,10-hexahydro-12H-pyrazino[2,1-c]pyrido[3,4-f][1,4]oxazepin-12-one] are 26 nM, above 5 µM and 51 nM.
Taken in the same sequence, the figures for `C=CC(=O)N1CCN2C(=O)c3c(N4CCC5(COC5)C4)nc(-c4c(O)cccc4F)c(Cl)c3OC[C@H]2C1` [Z45, (6aR)-8-acryloyl-4-chloro-3-(2-fluoro-6-hydroxyphenyl)-1-(2-oxa-6-azaspiro[3.4]octan-6-yl)-6,6a,7,8,9,10-hexahydro-12H-pyrazino[2,1-c]pyrido[3,4-f][1,4]oxazepin-12-one] were 46 nM, above 20 µM and 60 nM.
On to `C=CC(=O)N1CCN2C(=O)c3c(N4CCC5CN(C)CC54)nc(-c4c(O)cccc4F)c(Cl)c3OC[C@H]2C1` (stereo partly drawn) [Z47, (6aR)-8-acryloyl-4-chloro-3-(2-fluoro-6-hydroxyphenyl)-1-(5-methylhexahydropyrrolo[3,4-b]pyrrol-1(2H)-yl)-6,6a,7,8,9,10-hexahydro-12H-pyrazino[2,1-c]pyrido[3,4-f][1,4]oxazepin-12-one], for which the IC50 in assay [1] (Homo sapiens, NCI-H358, 120 h) is 47 nM; in assay [2] (Homo sapiens, A549, 120 h), above 20 µM; in assay [3] (setting [4]) it was 42 nM.
On to `C=CC(=O)N1CCN2C(=O)c3c(N4CCOC[C@@H]4CC)nc(-c4c(O)cccc4F)c(Cl)c3OC[C@H]2C1` [Z52, (6aR)-8-acryloyl-4-chloro-1-((S)-3-ethylmorpholino)-3-(2-fluoro-6-hydroxyphenyl)-6,6a,7,8,9,10-hexahydro-12H-pyrazino[2,1-c]pyrido[3,4-f][1,4]oxazepin-12-one], for which the IC50 is 36 nM in assay [1] (Homo sapiens, NCI-H358, 120 h); above 5 µM in assay [2] (Homo sapiens, A549, 120 h); 39 nM in assay [3] (setting [4]).
Regarding `C=CC(=O)N1CCN2C(=O)c3c(-c4ccccc4)nc(-c4c(O)cccc4F)c(Cl)c3OC[C@H]2C1` [Z53, (6aR)-8-acryloyl-4-chloro-3-(2-fluoro-6-hydroxyphenyl)-1-phenyl-6,6a,7,8,9,10-hexahydro-12H-pyrazino[2,1-c]pyrido[3,4-f]oxazepin-12-one], the concentration for half-maximal inhibition (IC50) in assay [1] was 146 nM; in assay [2] it was above 30 µM; in assay [3], 292 nM.
